Experimental data as given in patent US8088777B2, “Urea derivative” (Shionogi & Co., Ltd., priority 2006, dated 2012).
pIC50: −log10 of the molar value.

Target: T1, human NPY Y5 receptor (Homo sapiens, UniProt Q15761)
T1 construct: expressed in transfected cells; membranes used
T1 sequence (Q15761 1-445): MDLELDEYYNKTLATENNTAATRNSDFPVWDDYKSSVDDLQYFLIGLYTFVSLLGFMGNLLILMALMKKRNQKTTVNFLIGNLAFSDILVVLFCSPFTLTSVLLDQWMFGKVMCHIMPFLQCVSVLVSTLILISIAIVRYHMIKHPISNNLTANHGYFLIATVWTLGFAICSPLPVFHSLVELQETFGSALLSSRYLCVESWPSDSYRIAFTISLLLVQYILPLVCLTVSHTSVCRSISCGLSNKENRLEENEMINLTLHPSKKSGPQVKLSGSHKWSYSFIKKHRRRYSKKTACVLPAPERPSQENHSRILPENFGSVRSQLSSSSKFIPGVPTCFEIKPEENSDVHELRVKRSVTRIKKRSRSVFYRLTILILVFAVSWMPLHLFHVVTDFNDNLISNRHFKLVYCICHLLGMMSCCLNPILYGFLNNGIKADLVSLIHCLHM
Test: Affinity for NPY Y5 receptor: inhibition of [125I] peptide YY binding to membranes of CHO cells expressing NPY Y5 receptor
Details: [125I] peptide YY 60 pM, 25° C., 2 hours, read-out: 50% inhibitory concentration of the test compound against the specific peptide YY binding (IC50 value)
From the text: cDNA sequence encoding a human NPY Y5 receptor (WO96/16542) was cloned in a vector pME18S (Takebe et al. Mol. Cell. Biol. 8, 8957). The obtained expression vector was transfected into CHO cells as a host by using Lipofect AMINE reagent (Trademark, Gibco BRL Co., Ltd.) according to the instruction […] manual. The cells that stably express NPY Y5 receptor were obtained.
The membranes prepared from the CHO cells expressing NPY Y5 receptor, the compound of the present invention and 30,000 cpm [^125I] peptide YY (60 pM of final concentration: Amersham) were incubated in the assay buffer (20 mM HEPES-Hanks buffer containing 0.1% bovine serum albumin, pH 7.4) at 25° C. for 2 hours, and then the membrane was collected by filtering the mixture through a glassfilter (GF/C) presoaked with 1% polyethyleneimine. After washing with 50 mM Tris-HCl buffer (pH 7.4), radioactivity retained on the filters was quantified with a gamma counter. Nonspecific binding was defined as the amount of radioactivity bound to the membranes after incubation in the presence of 200 nM of peptide YY. The 50% inhibitory concentration of the test compound against the specific peptide YY binding (IC50 value) was calculated (Inui, A. et al. Endocrinology 131, 2090-2096 (1992)).

Row | pIC50 | SMILES
1 | 9.26 | CC(C)n1c(=O)oc2cc(NC(=O)N[C@H]3CC[C@H](NS(=O)(=O)C(C)(C)C)CC3)ccc21 [Example II-12]
2 | 8.73 | CCS(=O)(=O)N(C)C1CCC(N(C)C(=O)Nc2ccc3c(c2)oc(=O)n3C(C)C)CC1 (stereo not drawn) [Example II-2]
3 | 9.49 | CC(C)n1c(=O)oc2cc(NC(=O)N[C@H]3CC[C@H](NS(=O)(=O)C(C)C)CC3)ccc21 [Example II-14]
